Test results from patent US10815274B2, “Immunogenic WT-1 peptides and methods of use thereof” (Memorial Sloan Kettering Cancer Center, priority 2012, dated 2020).
Where a SMILES comes first, the peptide text is derived from it.

Columns and labels:
PHA blasts = assay: Cr51 release assay, cytotoxic CTL response vs PHA blasts from the same leukemic patient; type: cell-based, human; conditions: 50:1 E:T, PHA blasts from same patients as the leukemia
[1] = system: WT1- allo APC with restricting HLA allele; assay: Cr51 release assay, cytotoxic CTL response vs unloaded allogeneic APC sharing restricting HLA allele; type: cell-based, human; conditions: 50:1 E:T
[2] = system: WT1 peptide loaded autologous APC; assay: Cr51 release assay, cytotoxic CTL response vs peptide loaded autologous APC; type: cell-based, human; conditions: 50:1 E:T
WT1+ leukemia = assay: Cr51 release assay, cytotoxic CTL response vs WT1+ leukemia expressing restricting HLA allele; type: cell-based, human; conditions: 50:1 E:T
[3] = system: WT1+ allo APC with restricting HLA allele loaded with WT1 peptide; assay: Cr51 release assay, cytotoxic CTL response vs peptide loaded allogeneic APC sharing restricting HLA allele (HLA restriction); conditions: 50:1 E:T
WT1- leukemia = assay: Cr51 release assay, cytotoxic CTL response vs WT1- leukemia; type: cell-based, human; conditions: 50:1 E:T
WT1- autologous APC = assay: Cr51 release assay, cytotoxic CTL response vs unmodified autologous APC; type: cell-based, human; conditions: 50:1 E:T

| Structure (SMILES) | Cytotoxic CTL response, % vs PHA blasts (PHA blasts; HLA allele A0201) | Cytotoxic CTL response, % vs WT1- allo APC with restricting HLA allele ([1]; HLA allele A0201) | Cytotoxic CTL response, % vs WT1 peptide loaded autologous APC ([2]; HLA allele A0201) | Cytotoxic CTL response, % vs WT1+ Leukemia (WT1+ leukemia; HLA allele A0201) | Cytotoxic CTL response, % vs WT1+ leukemia (WT1+ leukemia; HLA allele A0201) | Cytotoxic CTL response, % vs WT1+ allo APC with restricting HLA allele loaded with WT1 peptide ([3]; HLA allele A0201) | Cytotoxic CTL response, % vs WT1- leukemia (WT1- leukemia; HLA allele A0201) | Cytotoxic CTL response, % vs WT1- autologous APC (WT1- autologous APC; HLA allele A0201) | Cytotoxic CTL response, % vs PHA blasts (PHA blasts; HLA allele B4001) | Cytotoxic CTL response, % vs WT1- allo APC with restricting HLA allele ([1]; HLA allele B4001) | Cytotoxic CTL response, % vs WT1 peptide loaded autologous APC ([2]; HLA allele B4001) | Cytotoxic CTL response, % vs WT1+ Leukemia (WT1+ leukemia; HLA allele B4001) | Cytotoxic CTL response, % vs WT1+ leukemia (WT1+ leukemia; HLA allele B4001) | Cytotoxic CTL response, % vs WT1+ allo APC with restricting HLA allele loaded with WT1 peptide ([3]; HLA allele B4001) | Cytotoxic CTL response, % vs WT1- leukemia (WT1- leukemia; HLA allele B4001) | Cytotoxic CTL response, % vs WT1- autologous APC (WT1- autologous APC; HLA allele B4001) | further results |
| --- | --- | --- | --- | --- | --- | --- | --- | --- | --- | --- | --- | --- | --- | --- | --- | --- | --- |
| CC(C)C[C@H](NC(=O)[C@H](CO)NC(=O)[C@@H]1CCCN1C(=O)[C@@H]1CCCN1C(=O)[C@H](Cc1ccccc1)NC(=O)[C@H](Cc1c[nH]cn1)NC(=O)[C@@H]1CCCN1C(=O)[C@H](CC(C)C)NC(=O)[C@@H]1CCCN1)C(=O)O [SEQ ID NO: 144] (H-PLPHFPPSL-OH; N-terminus and C-terminus assumed) | 1% | 1% | 30% | 22% | 22% | 24% | 2% | 0% | – | – | – | – | – | – | – | – | – |
| C[C@@H](O)[C@H](N)C(=O)N[C@@H](Cc1c[nH]cn1)C(=O)N[C@@H](CO)C(=O)N1CCC[C@H]1C(=O)N[C@H](C(=O)N[C@@H](Cc1c[nH]cn1)C(=O)N1CCC[C@H]1C(=O)N1CCC[C@H]1C(=O)N[C@@H](CCCNC(=N)N)C(=O)O)[C@@H](C)O [SEQ ID NO: 146] (H-THSPTHPPR-OH; N-terminus and C-terminus assumed) | 3% | 1% | 50% | 38% | 38% | 21% | 0% | 2% | 5% | 0% | 45% | 65% | 65% | 31% | 3% | 0% | – |
| CC(C)C[C@H](NC(=O)[C@@H](N)CCCCN)C(=O)NCC(=O)N[C@@H](C)C(=O)N[C@@H](C)C(=O)N[C@@H](CCC(=O)O)C(=O)N[C@@H](C)C(=O)N[C@@H](CO)C(=O)N[C@@H](C)C(=O)O [SEQ ID NO: 150] (H-KLGAAEASA-OH; N-terminus and C-terminus assumed) | 8% | 2% | 41% | 37% | 37% | 22% | 10% | 3% | – | – | – | – | – | – | – | – | – |
| CSCC[C@H](NC(=O)[C@H](CCC(N)=O)NC(=O)[C@H](CCC(N)=O)NC(=O)[C@@H]1CCCN1C(=O)[C@H](CCC(=O)O)NC(=O)[C@H](CO)NC(=O)CNC(=O)[C@H](CO)NC(=O)[C@H](C)N)C(=O)O [SEQ ID NO: 151] (H-ASGSEPQQM-OH; N-terminus and C-terminus assumed) | – | – | – | – | – | – | – | – | – | – | – | – | – | – | – | – | Cytotoxic CTL response, % vs PHA blasts (PHA blasts; HLA allele B3501): 9%; Cytotoxic CTL response, % vs WT1- allo APC with restricting HLA allele ([1]; HLA allele B3501): 3%; Cytotoxic CTL response, % vs WT1 peptide loaded autologous APC ([2]; HLA allele B3501): 73%; Cytotoxic CTL response, % vs WT1+ Leukemia (WT1+ leukemia; HLA allele B3501): 39%; Cytotoxic CTL response, % vs WT1+ leukemia (WT1+ leukemia; HLA allele B3501): 39%; Cytotoxic CTL response, % vs WT1+ allo APC with restricting HLA allele loaded with WT1 peptide ([3]; HLA allele B3501): 51%; Cytotoxic CTL response, % vs WT1- leukemia (WT1- leukemia; HLA allele B3501): 5%; Cytotoxic CTL response, % vs WT1- autologous APC (WT1- autologous APC; HLA allele B3501): 5% |
| CC(C)C[C@H](NC(=O)[C@H](C)NC(=O)[C@H](CS)NC(=O)CNC(=O)CN)C(=O)N1CCC[C@H]1C(=O)N[C@H](C(=O)N[C@@H](CO)C(=O)NCC(=O)N[C@@H](C)C(=O)O)C(C)C [SEQ ID NO: 153] (H-GGCALPVSGA-OH; N-terminus and C-terminus assumed) | 6% | 3% | 32% | 47% | 47% | 25% | 3% | 8% | – | – | – | – | – | – | – | – | – |
| CC(C)C[C@H](NC(=O)[C@H](CO)NC(=O)CNC(=O)[C@H](Cc1ccc(O)cc1)NC(=O)[C@H](C)NC(=O)[C@@H](N)CO)C(=O)NCC(=O)NCC(=O)N1CCC[C@H]1C(=O)O [SEQ ID NO: 157] (H-SAYGSLGGP-OH; N-terminus and C-terminus assumed) | – | 5% | 51% | – | 0% | 31% | 0% | 2% | 3% | 8% | 41% | 68% | 68% | 24% | 3% | 2% | – |
| CC(C)C[C@H](NC(=O)[C@H](CC(N)=O)NC(=O)[C@H](CC(=O)O)NC(=O)[C@H](CO)NC(=O)[C@H](CO)NC(=O)[C@H](Cc1ccc(O)cc1)NC(=O)[C@@H]1CCCN1C(=O)[C@@H](NC(=O)[C@@H](N)CCCNC(=N)N)[C@@H](C)O)C(=O)O [SEQ ID NO: 169] (H-RTPYSSDNL-OH; N-terminus and C-terminus assumed) | – | – | – | – | – | – | – | – | – | – | – | – | – | – | – | – | Cytotoxic CTL response, % vs PHA blasts (PHA blasts; HLA allele B3503): 1%; Cytotoxic CTL response, % vs PHA blasts (PHA blasts; HLA allele C0401): 1%; Cytotoxic CTL response, % vs WT1- allo APC with restricting HLA allele ([1]; HLA allele B3503): 3%; Cytotoxic CTL response, % vs WT1 peptide loaded autologous APC ([2]; HLA allele B3503): 84%; Cytotoxic CTL response, % vs WT1 peptide loaded autologous APC ([2]; HLA allele C0401): 84%; Cytotoxic CTL response, % vs WT1+ Leukemia (WT1+ leukemia; HLA allele B3503): 48%; Cytotoxic CTL response, % vs WT1+ leukemia (WT1+ leukemia; HLA allele B3503): 48%; Cytotoxic CTL response, % vs WT1+ Leukemia (WT1+ leukemia; HLA allele C0401): 48%; Cytotoxic CTL response, % vs WT1+ leukemia (WT1+ leukemia; HLA allele C0401): 48%; Cytotoxic CTL response, % vs WT1+ allo APC with restricting HLA allele loaded with WT1 peptide ([3]; HLA allele B3503): 31%; Cytotoxic CTL response, % vs WT1- leukemia (WT1- leukemia; HLA allele B3503): 4%; Cytotoxic CTL response, % vs WT1- leukemia (WT1- leukemia; HLA allele C0401): 4%; Cytotoxic CTL response, % vs WT1- autologous APC (WT1- autologous APC; HLA allele B3503): 0%; Cytotoxic CTL response, % vs WT1- autologous APC (WT1- autologous APC; HLA allele C0401): 0% |
| CSCC[C@H](NC(=O)[C@@H](N)CC(N)=O)C(=O)N[C@@H](Cc1c[nH]cn1)C(=O)N[C@@H](CCC(N)=O)C(=O)N[C@@H](CCCNC(=N)N)C(=O)N[C@@H](CC(N)=O)C(=O)N[C@@H](Cc1c[nH]cn1)C(=O)N[C@H](C(=O)N[C@@H](CCCCN)C(=O)N[C@@H](CC(C)C)C(=O)O)[C@@H](C)O [SEQ ID NO: 183] (H-NMHQRNHTKL-OH; N-terminus and C-terminus assumed) | – | 4% | 40% | – | 0% | 32% | 0% | 2% | 1% | 1% | 31% | 72% | 72% | 26% | 3% | 0% | Cytotoxic CTL response, % vs WT1- allo APC with restricting HLA allele ([1]; HLA allele A2402): 13%; Cytotoxic CTL response, % vs WT1 peptide loaded autologous APC ([2]; HLA allele A2402): 47%; Cytotoxic CTL response, % vs WT1+ leukemia (WT1+ leukemia; HLA allele A2402): 0%; Cytotoxic CTL response, % vs WT1+ allo APC with restricting HLA allele loaded with WT1 peptide ([3]; HLA allele A2402): 27%; Cytotoxic CTL response, % vs WT1- leukemia (WT1- leukemia; HLA allele A2402): 0%; Cytotoxic CTL response, % vs WT1- autologous APC (WT1- autologous APC; HLA allele A2402): 19% |
